Assay results: patent US8546338B2, “Self-assembling hydrogels based on dicephalic peptide amphiphiles” (Johnson & Johnson Consumer Companies, Inc., priority 2010, dated 2013)

Key:
[1] = tested on: human umbilical cord cells (hUTCs); assay: Cell viability of encapsulated hUTCs in DPA gels (Live/Dead); type: cell-based; conditions: 2 wt % gel, 100,000 cells, after 1, 2 and 3 weeks
Procedure: The viability and proliferation of cells in the gels was evaluated by encapsulating human umbilical cord cells (hUTCs) in the gels. hUTCs were isolated as described in U.S. Pat. No. 7,510,873. Cells were thawed from storage and cultured for four days in Hayflick media. After four days, the cells were trypsinized and counted by the Guava ViaCount methodology (Millipore, Billerica, Mass.). Cells were re-suspended in Hayflick media at a density of 1,000,000 cells/ml. Encapsulation of the cells in the gels was achieved by adding 100 μl cell suspension to 100 μl of a 4 wt % DPA solution in ultrapure in a 24 well plate, resulting in a final DPA concentration of 2%. The gels were incubated for 1 h at 37° C., 5% CO2 after which 1000 μl media was added on top of the gel. Cells were incubated at 37° C., 5% CO2. Every 3-4 days of culture, 500 μl media was replaced.
After mixing of the cell suspension and 4% DPA solution by pipetting up and down, the protocol described above was modified by adding 10 μl 100 mg/ml calcium chloride solution upon which gelation occurred. Final concentrations are 2% in DPA and 100,000 cells. Control gels without cells were prepared by using pure media and additional cell only and cells with calcium chloride controls were prepared as standard 2D culture. After 7 days of culture, the gels were assayed with Live/Dead assay for cell viability and Invitrogen CyQuant GR assay for cell proliferation (Invitrogen, Carlsbad, Calif.). The Live/Dead was performed as described in the provided protocol but at half the […] concentration to reduce non-specific fluorescence due to dye absorption. […] The cells in the gels contained a lot of viable cells (FIG. 410). No dead cells could be observed in the gels. Therefore, the viability of these cells in the gels is very high (>95%).
In a second experiment, 100,000 hUTC cells were encapsulated in 2 wt % Gly-Phe-Gly-Phe-Gly-Phe-Gly-Gln-Gln-Ser (SEQ ID NO: 8) DPA gels. The cells were cultured for 3 weeks and cells were assessed after 1, 2 and 3 weeks with Live/Dead.

[2] = Oscillating rheology, strain sweep; type: physicochemical; conditions: 2 wt % gels in DMEM, formed for 30 minutes
Procedure: (§1) Oscillating rheology by the parallel plates method (radius=25 mm) was performed on 400 μl gels to assess the mechanical strengths of gels. Time sweeps were performed to evaluate kinetics of formation at a constant strain rate of 1% and frequency of 1 rad/s. Strain sweeps were performed ranging from 1-100% strain in increments of 2% at a constant frequency of 1 rad/s. Cross-over of G′ and G″ was used to determine the gel point and point of breakdown. Time sweeps were initiated immediately after mixing the solutions that lead to DPA hydrogel formation. In the strain sweeps, the gels were allowed to form on the plate for 30 minutes before the measurement is initiated.
Strains sweeps were performed on 2 wt % Gly-Phe-Gly-Phe-Gly-Phe-Gly-Gln-Gln-Ser (SEQ ID NO: 8), Gly-Phe-Gly-Phe-Gly-Phe-Gly-Gln-Gly-Ser (SEQ ID NO: 12) and Gly-Phe-Gly-Phe-Gly-Phe-Gly-Asn-Asn-Ser (SEQ ID NO: 11) gels in DMEM (FIG. 8). Gels were allowed to form for 30 minutes before the experiment was initiated.

[3] = tested on: human internal mammary artery derived cells (IMACs); assay: Cell viability of encapsulated IMACs in DPA gels (Live/Dead); type: cell-based; conditions: 2% DPA gel
Procedure: The viability and proliferation of cells in the gels was evaluated by encapsulating human internal mammary artery derived cells (IMACs) in the gels. IMACs were isolated as described in copending U.S. patent application Ser. No. 12/885,855. Cells were thawed from storage and cultured for four days in advanced DMEM/F12 media. After four days, the cells were trypsinized and counted by the Guava ViaCount (Millipore, Billerica, Mass.) methodology. Cells were re-suspended in advanced DMEM/F12 media at a density of 1,000,000 cells/ml. Encapsulation of the cells in the gels was achieved by adding 100 μl cell suspension to 100 μl of a 4 wt % DPA solution in ultrapure in a 24 well plate, resulting in a final DPA concentration of 2%. The gels were incubated for 1 h at 37° C., 5% CO2 after which 1000 μl media was added on top of the gel. Cells were incubated at 37° C., 5% CO2. Every 3-4 days of culture, 500 μl media was replaced. The cells were cultured for 3 weeks and cells were assessed after 1, 2 and 3 weeks with Live/Dead. […] The IMAC cells appear to have high motility in these gels as evidenced by the channels that they create in the gels.

[4] = Oscillating rheology, time sweep (kinetics of formation); type: physicochemical; conditions: 2 wt % gels in DMEM
Procedure: as §1
The gelation process was initiated on the plate at 25° C. by the addition of 10 μl of 100 mg/ml calcium chloride solution to a solution of the DPA in DMEM.

Sprague-Dawley rats = assay: Biocompatibility study, gel injected into intra-gluteal muscle pocket; type: in vivo; conditions: rat, in vivo
Procedure: A biocompatibility study was performed on Gly-Val-Ala-Val-Ala-Val-Ala-Glu-Gly-Glu (SEQ ID NO: 4), Gly-Phe-Gly-Phe-Gly-Phe-Gly-Glu-Gly-Glu (SEQ ID NO: 5) and Gly-Phe-Gly-Phe-Gly-Phe-Gly-Gln-Gln-Ser (SEQ ID NO: 8) DPAs. Lyophilized DPA powders were e-beam sterilized in 1.5 cc polypropylene cryovials at 15 KGy. Gels were pre-formed in 1 cc syringes by mixing a 4 wt % DPA solution in water for injection in a 1:1 ratio with DMEM followed by immediate aspiration into the syringe. In the case of the formulations with the Glu-Gly-Glu (SEQ ID NO: 27) sequence in the solubility enhancing region, 10 μl of a sterile 100 mg/cc calcium chloride solution was mixed in before aspiration into the syringe. An intra-gluteal muscle pocket was created in Sprague-Dawley rats after which 100 μl of gel was injected using a catheter fitted to the syringe. Subsequently, the pocket was closed with polyglactin 910 sutures sold under the tradename VICRYL (Ethicon, Somerville, N.J.). Tissue was harvested at 3, 7 and 28 days after implantation.

In the case of `CCCCCCCCCCCCCCCC(=O)NC(C(=O)NCC(=O)N[C@@H](Cc1ccccc1)C(=O)NCC(=O)N[C@@H](Cc1ccccc1)C(=O)NCC(=O)N[C@@H](Cc1ccccc1)C(=O)NCC(=O)N[C@@H](CCC(N)=O)C(=O)N[C@@H](CCC(N)=O)C(=O)N[C@@H](CO)C(=O)O)C(=O)NCC(=O)N[C@@H](Cc1ccccc1)C(=O)NCC(=O)N[C@@H](Cc1ccccc1)C(=O)NCC(=O)N[C@@H](Cc1ccccc1)C(=O)NCC(=O)N[C@@H](CCC(N)=O)C(=O)N[C@@H](CCC(N)=O)C(=O)N[C@@H](CO)C(=O)O` [Gly-Phe-Gly-Phe-Gly-Phe-Gly-Gln-Gln-Ser], the “Viability of hUTC cells, Live/Dead” value [1] is reported as “very limited numbers of dead cells were detected”, the “Strain at which gel re-crosses the transition point (breakdown)” value [2] is reported as 99 % strain and the “Strain at which gel re-crosses the transition point (breakdown)” value ([2]; listed as Gln-Gln-Ser (SEQ ID NO: 28)) is reported as roughly 100 % strain. The “Viability of IMAC cells, Live/Dead” value ([3]; after 1, 2 and 3 weeks) was “very limited numbers of dead cells were detected”, the “Motility of IMAC cells in the gel” value ([3]; three weeks, channels created in the gels) was “high motility” and the “Gel point after mixing” value [4] was 74 s. The Gross observations (Sprague-Dawley rats) was “some fluid buildup at day 3”.
